# Reference: PubChem BioAssay (NCI)
#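 Protocol summary: plate cells (96-well), add compound at 5 concentrations, incubate 48 h, interpolate endpoints linearly. The concentration for 50% growth inhibition is given as GI50. TGI: concentration producing complete growth inhibition.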
# What was measured:
# Test in all cases: inhibition of tumour cell growth, NCI panel, 48 h
# MOLT-4 leukemia = tested on: MOLT-4 leukemia
# ACHN renal = tested on: ACHN renal
# DU-145 prostate = tested on: DU-145 prostate
# MDA-MB-231 breast = tested on: MDA-MB-231 breast
# KM12 colon = tested on: KM12 colon
# SNB-19 CNS = tested on: SNB-19 CNS
# RXF 393 renal = tested on: RXF 393 renal
# HL-60(TB) leukemia = tested on: HL-60(TB) leukemia
# SNB-75 CNS = tested on: SNB-75 CNS
# 786-0 renal = tested on: 786-0 renal
# HCT-116 colon = tested on: HCT-116 colon
# SW-620 colon = tested on: SW-620 colon
# LOX IMVI melanoma = tested on: LOX IMVI melanoma
# UACC-257 melanoma = tested on: UACC-257 melanoma
# CCRF-CEM leukemia = tested on: CCRF-CEM leukemia
# HT29 colon = tested on: HT29 colon
# RPMI-8226 leukemia = tested on: RPMI-8226 leukemia
# SK-MEL-28 melanoma = tested on: SK-MEL-28 melanoma
# UO-31 renal = tested on: UO-31 renal
# UACC-62 melanoma = tested on: UACC-62 melanoma
# HS 578T breast = tested on: HS 578T breast
# MDA-N = tested on: MDA-N
# BT-549 breast = tested on: BT-549 breast
# T-47D breast = tested on: T-47D breast
# IGROV1 ovarian = tested on: IGROV1 ovarian
# SN12C renal = tested on: SN12C renal
# COLO 205 colon = tested on: COLO 205 colon
# HCT-15 colon = tested on: HCT-15 colon
# U251 CNS = tested on: U251 CNS
# TK-10 renal = tested on: TK-10 renal
# A498 renal = tested on: A498 renal
# SF-268 CNS = tested on: SF-268 CNS
# OVCAR-8 ovarian = tested on: OVCAR-8 ovarian
# SK-MEL-5 melanoma = tested on: SK-MEL-5 melanoma
# HOP-92 NSCLC = tested on: HOP-92 NSCLC
# MCF7 breast = tested on: MCF7 breast
# SK-OV-3 ovarian = tested on: SK-OV-3 ovarian
# CAKI-1 renal = tested on: CAKI-1 renal
# EKVX NSCLC = tested on: EKVX NSCLC
# MDA-MB-435 = tested on: MDA-MB-435
# SK-MEL-2 melanoma = tested on: SK-MEL-2 melanoma
# K-562 leukemia = tested on: K-562 leukemia
# SR leukemia = tested on: SR leukemia
# NCI-H522 lung = tested on: NCI-H522 lung
# MALME-3M melanoma = tested on: MALME-3M melanoma
# HCC-2998 colon = tested on: HCC-2998 colon
# SF-295 CNS = tested on: SF-295 CNS
# OVCAR-5 ovarian = tested on: OVCAR-5 ovarian
# A549 NSCLC = tested on: A549 NSCLC
# PC-3 prostate = tested on: PC-3 prostate
# M14 melanoma = tested on: M14 melanoma
# OVCAR-4 ovarian = tested on: OVCAR-4 ovarian
# SF-539 CNS = tested on: SF-539 CNS
# OVCAR-3 ovarian = tested on: OVCAR-3 ovarian
# HOP-62 NSCLC = tested on: HOP-62 NSCLC
# NCI-H226 lung = tested on: NCI-H226 lung
# NCI/ADR-RES ovarian = tested on: NCI/ADR-RES ovarian
# NCI-H23 lung = tested on: NCI-H23 lung
# NCI-H460 lung = tested on: NCI-H460 lung
structure (smiles),measurement,setting,value
CNc1nncc2[nH]cnc12,TGI,MOLT-4 leukemia,> 100 µM
same,TGI,ACHN renal,> 100 µM
same,TGI,DU-145 prostate,> 100 µM
same,TGI,MDA-MB-231 breast,> 100 µM
same,TGI,KM12 colon,> 100 µM
same,TGI,SNB-19 CNS,> 100 µM
same,TGI,RXF 393 renal,> 100 µM
same,TGI,HL-60(TB) leukemia,> 100 µM
same,TGI,SNB-75 CNS,> 100 µM
same,TGI,786-0 renal,> 100 µM
same,TGI,HCT-116 colon,> 100 µM
same,TGI,SW-620 colon,> 100 µM
same,TGI,LOX IMVI melanoma,> 100 µM
same,TGI,UACC-257 melanoma,> 100 µM
same,TGI,CCRF-CEM leukemia,> 100 µM
same,TGI,HT29 colon,> 100 µM
same,TGI,RPMI-8226 leukemia,> 100 µM
same,TGI,SK-MEL-28 melanoma,> 100 µM
same,TGI,UO-31 renal,> 100 µM
same,TGI,UACC-62 melanoma,> 100 µM
same,TGI,HS 578T breast,> 100 µM
same,TGI,MDA-N,> 100 µM
same,TGI,BT-549 breast,> 100 µM
same,TGI,T-47D breast,> 100 µM
same,TGI,IGROV1 ovarian,> 100 µM
same,TGI,SN12C renal,> 100 µM
same,TGI,COLO 205 colon,> 100 µM
same,TGI,HCT-15 colon,> 100 µM
same,TGI,U251 CNS,> 100 µM
same,TGI,TK-10 renal,> 100 µM
same,TGI,A498 renal,> 100 µM
same,TGI,SF-268 CNS,> 100 µM
same,TGI,OVCAR-8 ovarian,> 100 µM
same,TGI,SK-MEL-5 melanoma,> 100 µM
same,TGI,HOP-92 NSCLC,> 100 µM
same,TGI,MCF7 breast,> 100 µM
same,TGI,SK-OV-3 ovarian,> 100 µM
same,TGI,CAKI-1 renal,> 100 µM
same,TGI,EKVX NSCLC,> 100 µM
same,TGI,MDA-MB-435,> 100 µM
O=c1[nH]c(-c2cccc(F)c2)cc2cc(F)ccc12,GI50,SK-MEL-2 melanoma,0.513 µM
same,TGI,SK-MEL-2 melanoma,> 100 µM
same,GI50,MOLT-4 leukemia,0.568 µM
same,TGI,MOLT-4 leukemia,> 100 µM
same,GI50,ACHN renal,0.771 µM
same,TGI,ACHN renal,> 100 µM
same,GI50,DU-145 prostate,0.507 µM
same,TGI,DU-145 prostate,> 100 µM
same,GI50,MDA-MB-231 breast,2.37 µM
same,TGI,MDA-MB-231 breast,> 100 µM
same,GI50,KM12 colon,0.307 µM
same,TGI,KM12 colon,> 100 µM
same,GI50,K-562 leukemia,0.0698 µM
same,TGI,K-562 leukemia,> 100 µM
same,GI50,SR leukemia,0.0712 µM
same,TGI,SR leukemia,> 100 µM
same,GI50,SNB-19 CNS,0.664 µM
same,TGI,SNB-19 CNS,> 100 µM
same,GI50,RXF 393 renal,0.358 µM
same,GI50,HL-60(TB) leukemia,0.199 µM
same,TGI,HL-60(TB) leukemia,0.684 µM
same,GI50,SNB-75 CNS,0.211 µM
same,TGI,SNB-75 CNS,> 100 µM
same,GI50,786-0 renal,2.87 µM
same,TGI,786-0 renal,> 100 µM
same,GI50,NCI-H522 lung,0.334 µM
same,TGI,NCI-H522 lung,> 100 µM
same,GI50,HCT-116 colon,0.195 µM
same,TGI,HCT-116 colon,> 100 µM
same,GI50,SW-620 colon,0.174 µM
same,TGI,SW-620 colon,> 100 µM
same,GI50,MALME-3M melanoma,> 100 µM
same,TGI,MALME-3M melanoma,> 100 µM
same,GI50,HCC-2998 colon,1.91 µM
same,TGI,HCC-2998 colon,> 100 µM
same,GI50,LOX IMVI melanoma,0.613 µM
same,TGI,LOX IMVI melanoma,> 100 µM
same,GI50,UACC-257 melanoma,> 100 µM
same,TGI,UACC-257 melanoma,> 100 µM
same,GI50,CCRF-CEM leukemia,0.369 µM
same,TGI,CCRF-CEM leukemia,> 100 µM
same,GI50,SF-295 CNS,0.305 µM
same,TGI,SF-295 CNS,> 100 µM
same,GI50,HT29 colon,0.261 µM
same,TGI,HT29 colon,> 100 µM
same,GI50,RPMI-8226 leukemia,0.355 µM
same,TGI,RPMI-8226 leukemia,> 100 µM
same,GI50,SK-MEL-28 melanoma,7.5 µM
same,TGI,SK-MEL-28 melanoma,> 100 µM
same,GI50,OVCAR-5 ovarian,1.74 µM
same,TGI,OVCAR-5 ovarian,> 100 µM
same,GI50,UO-31 renal,1.65 µM
same,TGI,UO-31 renal,> 100 µM
same,GI50,A549 NSCLC,0.798 µM
same,TGI,A549 NSCLC,> 100 µM
same,GI50,UACC-62 melanoma,0.571 µM
same,TGI,UACC-62 melanoma,> 100 µM
same,GI50,PC-3 prostate,0.391 µM
same,TGI,PC-3 prostate,> 100 µM
same,GI50,HS 578T breast,0.381 µM
same,TGI,HS 578T breast,> 72.8 µM
same,GI50,BT-549 breast,0.737 µM
same,TGI,BT-549 breast,> 100 µM
same,GI50,M14 melanoma,0.16 µM
same,TGI,M14 melanoma,> 100 µM
same,GI50,T-47D breast,> 100 µM
same,TGI,T-47D breast,> 100 µM
same,GI50,IGROV1 ovarian,0.822 µM
same,TGI,IGROV1 ovarian,> 100 µM
same,GI50,SN12C renal,1.31 µM
same,TGI,SN12C renal,> 100 µM
same,GI50,COLO 205 colon,0.338 µM
same,TGI,COLO 205 colon,> 100 µM
same,GI50,HCT-15 colon,0.119 µM
same,TGI,HCT-15 colon,> 100 µM
same,GI50,OVCAR-4 ovarian,> 90.9 µM
same,TGI,OVCAR-4 ovarian,> 100 µM
same,GI50,U251 CNS,0.47 µM
same,TGI,U251 CNS,> 100 µM
same,GI50,SF-539 CNS,0.272 µM
same,TGI,SF-539 CNS,1.7 µM
same,GI50,OVCAR-3 ovarian,0.314 µM
same,GI50,TK-10 renal,> 50 µM
same,TGI,TK-10 renal,> 100 µM
same,GI50,HOP-62 NSCLC,0.495 µM
same,TGI,HOP-62 NSCLC,> 100 µM
same,GI50,A498 renal,0.244 µM
same,TGI,A498 renal,2.94 µM
same,GI50,SF-268 CNS,> 82.9 µM
same,TGI,SF-268 CNS,> 100 µM
same,TGI,NCI-H226 lung,> 100 µM
same,GI50,NCI/ADR-RES ovarian,0.268 µM
same,TGI,NCI/ADR-RES ovarian,> 100 µM
same,GI50,OVCAR-8 ovarian,0.951 µM
same,TGI,OVCAR-8 ovarian,> 100 µM
same,GI50,SK-MEL-5 melanoma,0.334 µM
same,TGI,SK-MEL-5 melanoma,> 100 µM
same,GI50,HOP-92 NSCLC,> 100 µM
same,TGI,HOP-92 NSCLC,> 100 µM
same,GI50,MCF7 breast,0.329 µM
same,TGI,MCF7 breast,> 100 µM
same,GI50,SK-OV-3 ovarian,0.616 µM
same,TGI,SK-OV-3 ovarian,> 100 µM
same,GI50,NCI-H23 lung,1.61 µM
same,TGI,NCI-H23 lung,> 100 µM
same,GI50,CAKI-1 renal,0.264 µM
same,TGI,CAKI-1 renal,> 100 µM
same,GI50,NCI-H460 lung,0.389 µM
same,TGI,NCI-H460 lung,> 100 µM
same,GI50,EKVX NSCLC,2.34 µM
same,TGI,EKVX NSCLC,> 100 µM
same,GI50,MDA-MB-435,0.0279 µM
same,TGI,MDA-MB-435,0.0797 µM
